Numbering of substitutions follows the chain as printed.
Assays:
[1] = molecular target: T1, maize endosperm AGPase variant T142F (Zea mays, UniProt P55241+Q84PF5, T142F); details: cited from earlier work
T1 construct: data of Boehlein et al., 2013
T1 sequence (P55241 46-516 T142F): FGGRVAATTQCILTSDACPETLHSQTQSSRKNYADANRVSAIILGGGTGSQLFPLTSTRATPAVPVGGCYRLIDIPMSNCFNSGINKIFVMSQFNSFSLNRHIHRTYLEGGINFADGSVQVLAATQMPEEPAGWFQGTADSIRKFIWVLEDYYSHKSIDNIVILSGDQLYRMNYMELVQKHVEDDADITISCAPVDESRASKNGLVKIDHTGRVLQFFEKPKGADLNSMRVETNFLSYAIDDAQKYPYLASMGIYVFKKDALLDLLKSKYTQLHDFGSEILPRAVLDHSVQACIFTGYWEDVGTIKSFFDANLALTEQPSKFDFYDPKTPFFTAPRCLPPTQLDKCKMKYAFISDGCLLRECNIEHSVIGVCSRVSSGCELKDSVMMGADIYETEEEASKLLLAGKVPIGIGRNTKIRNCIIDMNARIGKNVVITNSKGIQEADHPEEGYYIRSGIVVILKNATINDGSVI
T1 sequence (Q84PF5 1-474): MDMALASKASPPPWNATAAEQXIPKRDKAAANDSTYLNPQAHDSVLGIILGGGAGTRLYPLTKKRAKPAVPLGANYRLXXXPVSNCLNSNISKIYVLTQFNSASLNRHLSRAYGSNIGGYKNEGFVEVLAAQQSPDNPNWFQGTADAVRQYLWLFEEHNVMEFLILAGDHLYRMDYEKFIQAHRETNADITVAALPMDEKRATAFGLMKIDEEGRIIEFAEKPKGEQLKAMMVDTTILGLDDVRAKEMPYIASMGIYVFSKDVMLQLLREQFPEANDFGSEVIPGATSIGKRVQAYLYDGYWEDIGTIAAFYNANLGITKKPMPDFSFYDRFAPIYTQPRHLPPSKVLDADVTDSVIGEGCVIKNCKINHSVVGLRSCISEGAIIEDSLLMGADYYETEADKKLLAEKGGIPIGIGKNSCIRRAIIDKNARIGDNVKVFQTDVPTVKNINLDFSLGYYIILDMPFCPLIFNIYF

[2] = molecular target: T2, maize endosperm AGPase, large subunit variant GGR (Q96G, D161G, A443R; numbering of SEQ ID NO: 20) (Zea mays, UniProt P55241+Q84PF5, A443R/D161G/Q96G); test: Kinetic constants in the absence of 3-PGA, GGR; format: biochemical
T2 sequence (P55241 46-516 A443R/D161G/Q96G): T1 sequence (P55241 46-516 T142F) with Q51G, F97T, D116G, A398R
T2 sequence (Q84PF5 1-474): T1 sequence (Q84PF5 1-474)
Experimental: Reactions were performed for 10 min and terminated by boiling. Blank mixtures contained everything except ATP.
Based on the kinetic results (Table 10) and catalytic properties at 55° C. (Table 10) both D161G and GGR were selected for a more detailed kinetic analysis. […] The GGR mutant was primarily chosen based on its increased catalytic rate at 37° C. and high performance at 55° C. Its high activity in the absence of 3-PGA was also paramount. The first kinetic parameters determined were the Michaelis constants, the catalytic rate (kcat) and the dissociation constant (Kia) for the E-ATP complex, in the absence of 3-PGA. […] For the wt maize enzyme, this activator primarily responds by reducing the Km for both substrates, with little effect on the reaction rate (Boehlein et al., 2013). […] The kinetic mechanism established ATP as the first substrate to bind, thus the activator is no longer necessary for this first step. […] This variant also conditions both heat stability and high activity in the absence of an activator.

Q: Which kcat ([1]; absence of 3-PGA) does the source give for `Nc1ncnc2c1ncn2[C@@H]1O[C@H](COP(=O)(O)OP(=O)(O)OP(=O)(O)O)[C@@H](O)[C@H]1O` [ATP] here?
A: 53.8 s⁻¹

Q: What about the Km ([1]; read-out: ATP Km, absence of 3-PGA) of the same compound?
A: 1730 µM

Q: And the Kd ([1]; read-out: Kia (dissociation constant for the E-ATP complex), absence of 3-PGA)?
A: 1500 µM

Q: And the kcat ([2]; ATP varied at fixed G-1-P)?
A: 72.4 s⁻¹

Q: And the Km ([2]; read-out: ATP Km)?
A: 100 µM
